Assay: Assay Measuring Activity of Test Compounds on Viral Production from HepAD38 Cells: HepAD38 cells grown in a T-150 flask (Corning, cat #: 430825) with Growth Medium (DMEM/F12 (1:1) (Hyclone, cat #: SH30023.02), 1× Pen/Strep (Invitrogen, cat #: 15140-122), 10% FBS (Tissue Culture Biologics, cat #: 101), 250 μg/mL G418 (Alfa Aesar, cat #: J62671), 1 μg/mL Tetracycline (Teknova, cat #: T3320)) were detached with 0.25% trypsin-EDTA to (Invitrogen, cat #: 25200-056). Tetracycline-free treatment medium (15 mL DMEM/F12 (1:1) 1× Pen/step, with 2% FBS, Tet-system approved (Clontech, cat #: 631106) were then added to mix, transferred into a 50 ml conical tube (Falcon, cat #: 21008-918,) and spun at 1300 rpm for 5 min. Pelleted cells were then re-suspended/washed with 50 mL of 1×DPBS (Invitrogen, cat #: 14190-136) 2 times and 50 mL treatment medium twice. HepAD38 cells were then re-suspended with 10 mL of treatment medium, syringed and counted. Wells of 96-well clear bottom TC plate (Corning, cat #: 3904,) were seeded at 50,000 cells/well in 180 μL of treatment medium, and 20 μL of either 10% DMSO (Sigma, cat #: D4540) as controls or a 10× solution of test compounds in 10% DMSO in treatment media was added for a final compound concentration starting at 10 μM, and plates were incubated in 5% CO2 incubator at 37° C. for 5 days.Subsequently viral load production was assayed by quantitative PCR (qPCR) of the HBV core sequence. PCR reaction mixture containing forward primers HBV-f 5′-CTGTGCCTTGGGTGGCTTT-3′ (IDT DNA), Reverse primers HBV-r 5′-[…]-3′ (IDT DNA), Fluorescent TaqMan™ Probes HBV-probe 5′-FAM/AGCTCCAAA/ZEN/[…]/3IABkFQ-3′ (IDT DNA), 10 μL/well of PerfeCTa® qPCR ToughMix® (Quanta Biosciences, Cat #: 95114-05K), and 6 μL/well of DEPC water (Alfa Aesar, cat #: J62087) was prepared. […] of supernatant was added to 16 μL of the reaction mixture in a qPCR plate (Applied Biosytems, Cat #: 4309849), sealed with a film (Applied Biosystems, Cat #: 4311971), centrifuged for a few seconds, and subsequently run on an Applied Biosystems VIIA7. The PCR mixture was incubated at 45° C. for 5 min, then 95° C. for 10 min, followed by 40 cycles of 10 seconds at 95° C. and 20 seconds at 60° C. Viral load was quantified against known HBV DNA standards by using ViiA™ 7 Software. Viral load in the supernatant from wells with treated cells were compared against viral load in supernatant from DMSO control wells (>3 per plate). Cell viability assay was performed with CellTiter-Glo Luminescent Cell Viability Assay (Promega, cat #: G7573) with modification. Mixed appropriate amount of CellTiter-Glo (CTG) 1×DPBS in a 1:1 ratio, added 100 uL of the mixture to each well followed completely removal of all supernatant in each well without touching cell surface. Incubated the plate at room temperature for 10 min on an orbital shaker, and then read the plate with a plate reader (TECAN M1000 or Envision).
Conditions: HePAD38

Compound | EC50
CSC1CC2CC(c3nn(C)c(N)c3C(=O)Nc3ccc(F)c(Cl)c3)CC2C1 (stereo not given) | < 100 nM
Cn1nc([C@@H]2CC3CC(O)(CS(=O)(=O)CCO)C[C@H]3C2)c(C(=O)Nc2ccc(F)c(Cl)c2)c1N (stereo not given in full) | < 100 nM
Cn1nc([C@@H]2CC3CC(O)(CSC(C)(C)C)C[C@@H]3C2)c(C(=O)Nc2ccc(F)c(Cl)c2)c1N (stereo not given in full) | < 100 nM
Cn1cc([C@H]2CC[C@@H](c3nn(C)c(N)c3C(=O)Nc3ccc(F)c(Cl)c3)C2)cn1 | < 100 nM
Cn1nc([C@@H]2CC3CC(O)(C[S+]([O-])CC(F)(F)F)C[C@H]3C2)c(C(=O)Nc2ccc(F)c(Cl)c2)c1N (stereo not given in full) | < 100 nM
Cn1cc([C@@H]2CC[C@@H](c3nn(C)c(N)c3C(=O)Nc3ccc(F)c(Cl)c3)C2)cn1 | in the range around 300 nM
Cn1nc(C2CC3CC(NS(=O)(=O)C(F)(F)F)CC3C2)c(C(=O)Nc2ccc(F)c(Cl)c2)c1N (stereo not given) | < 100 nM
Cn1nc(C2CC3CC(N4CCNC4=O)CC3C2)c(C(=O)Nc2ccc(F)c(Cl)c2)c1N (stereo not given) | < 100 nM
Cn1nc(C2CC3CNCC3C2)c(C(=O)Nc2ccc(F)c(Cl)c2)c1N (stereo not given) | in the range around 5250 nM
Cn1nc([C@@H]2CC3CC(O)(CSC(C)(C)C)C[C@H]3C2)c(C(=O)Nc2ccc(F)c(Cl)c2)c1N (stereo not given in full) | < 100 nM
Cn1cc(-c2ccc([C@H]3CC[C@H](c4nn(C)c(N)c4C(=O)Nc4ccc(F)c(Cl)c4)C3)cc2)cn1 | < 100 nM
Cn1nc(C2CC3CC(O)(COCC(F)(F)F)CC3C2)c(C(=O)Nc2ccc(F)c(Cl)c2)c1N (stereo not given) | < 100 nM
Cn1nc([C@@H]2CC3CC(O)(CS(=O)(=O)C4CC4)C[C@@H]3C2)c(C(=O)Nc2ccc(F)c(Cl)c2)c1N (stereo not given in full) | < 100 nM
CCSC1CC2CC(c3nn(C)c(N)c3C(=O)Nc3ccc(F)c(Cl)c3)CC2C1 (stereo not given) | < 100 nM
Cn1nc(C2CC3CC(OCC(F)(F)F)CC3C2)c(C(=O)Nc2ccc(F)c(Cl)c2)c1N (stereo not given) | < 100 nM
Cn1nc(C2CC3CC(O)(C(C)(C)O)CC3C2)c(C(=O)Nc2ccc(F)c(Cl)c2)c1N (stereo not given) | < 100 nM
Cn1nc(C2CC3CNC(=O)CC3C2)c(C(=O)Nc2ccc(F)c(Cl)c2)c1N (stereo not given) | < 100 nM
Cn1cc([C@H]2CC[C@H](c3nn(C)c(N)c3C(=O)Nc3ccc(F)c(Cl)c3)C2)cn1 | in the range around 300 nM
Cn1nc([C@@H]2CC3CC(O)(CSCC(F)(F)F)C[C@@H]3C2)c(C(=O)Nc2ccc(F)c(Cl)c2)c1N (stereo not given in full) | < 100 nM
CC(=O)N1CC2CC(c3nn(C)c(N)c3C(=O)Nc3ccc(F)c(Cl)c3)CC2C1 (stereo not given) | < 100 nM
Cn1nc([C@@H]2CC3CC(O)(CS(=O)(=O)C(C)(C)C)C[C@H]3C2)c(C(=O)Nc2ccc(F)c(Cl)c2)c1N (stereo not given in full) | < 100 nM
COC(=O)N1CC2CC(c3nn(C)c(N)c3C(=O)Nc3ccc(F)c(Cl)c3)CC2C1 (stereo not given) | < 100 nM

Compound | EC50
Cn1nc(C2CC3CC(N4CCC4)CC3C2)c(C(=O)Nc2ccc(F)c(Cl)c2)c1N (stereo not given) | in the range around 300 nM
Cn1nc([C@@H]2CC3CC(O)(CS(=O)(=O)C4CC4)C[C@H]3C2)c(C(=O)Nc2ccc(F)c(Cl)c2)c1N (stereo not given in full) | < 100 nM
CC(C)S(=O)(=O)N1CC2CC(c3nn(C)c(N)c3C(=O)Nc3ccc(F)c(Cl)c3)CC2C1 (stereo not given) | < 100 nM
CNC(=O)N1CC2CC(c3nn(C)c(N)c3C(=O)Nc3ccc(F)c(Cl)c3)CC2C1 (stereo not given) | < 100 nM
Cn1nc([C@@H]2CC3CC(O)(CSCC(F)(F)F)C[C@H]3C2)c(C(=O)Nc2ccc(F)c(Cl)c2)c1N (stereo not given in full) | < 100 nM
Cn1nc(C2CC3CN(S(C)(=O)=O)CC3C2)c(C(=O)Nc2ccc(F)c(Cl)c2)c1N (stereo not given) | < 100 nM
CCC1OC[C@]2(CC3C[C@H](c4nn(C)c(N)c4C(=O)Nc4ccc(F)c(Cl)c4)C[C@@H]3C2)O1 (stereo not given in full) | < 100 nM
CCN(CC)C1CC2CC(c3nn(C)c(N)c3C(=O)Nc3ccc(F)c(Cl)c3)CC2C1 (stereo not given) | in the range around 300 nM
Cn1nc(C2CC3CC(NCCO)CC3C2)c(C(=O)Nc2ccc(F)c(Cl)c2)c1N (stereo not given) | in the range around 300 nM
Cn1nc(C2CC3CC(N4CCCC4)CC3C2)c(C(=O)Nc2ccc(F)c(Cl)c2)c1N (stereo not given) | < 100 nM
CC(C)N1CC2CC(c3nn(C)c(N)c3C(=O)Nc3ccc(F)c(Cl)c3)CC2C1 (stereo not given) | in the range around 5250 nM
CCC1OCC2(CC3C[C@H](c4nn(C)c(N)c4C(=O)Nc4ccc(F)c(Cl)c4)C[C@@H]3C2)O1 (stereo not given in full) | < 100 nM
CCS(=O)(=O)CC1(O)CC2C[C@@H](c3nn(C)c(N)c3C(=O)Nc3ccc(F)c(Cl)c3)C[C@@H]2C1 (stereo not given in full) | < 100 nM
CN(C)S(=O)(=O)CC1(O)CC2CC(c3nn(C)c(N)c3C(=O)Nc3ccc(F)c(Cl)c3)CC2C1 (stereo not given) | < 100 nM
Cn1nc(C2CC3CSCC3C2)c(C(=O)Nc2ccc(F)c(Cl)c2)c1N (stereo not given) | < 100 nM
Cn1nc([C@@H]2CC3CC(O)(CS(=O)(=O)CCO)C[C@@H]3C2)c(C(=O)Nc2ccc(F)c(Cl)c2)c1N (stereo not given in full) | < 100 nM
CCS(=O)(=O)CC1(O)CC2C[C@@H](c3nn(C)c(N)c3C(=O)Nc3ccc(F)c(Cl)c3)C[C@H]2C1 (stereo not given in full) | < 100 nM
Cn1nc([C@@H]2CC3C[S+]([O-])C[C@@H]3C2)c(C(=O)Nc2ccc(F)c(Cl)c2)c1N (stereo not given in full) | in the range around 5250 nM
CCC1OCC2(CC3C[C@H](c4nn(C)c(N)c4C(=O)Nc4ccc(F)c(Cl)c4)C[C@H]3C2)O1 (stereo not given in full) | < 100 nM
Cn1nc(C2CC3CC(O)(CC(=O)O)CC3C2)c(C(=O)Nc2ccc(F)c(Cl)c2)c1N (stereo not given) | < 100 nM
Cn1nc(C2CC3CC(C(=O)O)CC3C2)c(C(=O)Nc2ccc(F)c(Cl)c2)c1N (stereo not given) | < 100 nM
Cn1nc([C@@H]2CC3CNC(=O)C[C@@H]3C2)c(C(=O)Nc2ccc(F)c(Cl)c2)c1N (stereo not given in full) | in the range around 300 nM

Compound | EC50
Cn1nc([C@@H]2CC3CC(O)(CS(C)(=O)=O)C[C@@H]3C2)c(C(=O)Nc2ccc(F)c(Cl)c2)c1N (stereo not given in full) | < 100 nM
Cn1nc(C2CC3CC(O)(COC(F)F)CC3C2)c(C(=O)Nc2ccc(F)c(Cl)c2)c1N (stereo not given) | < 100 nM
CC(C)C1(O)CC2C[C@@H](c3nn(C)c(N)c3C(=O)Nc3ccc(F)c(Cl)c3)C[C@H]2C1O (stereo not given in full) | < 100 nM
CN(C1CC2CC(c3nn(C)c(N)c3C(=O)Nc3ccc(F)c(Cl)c3)CC2C1)S(C)(=O)=O (stereo not given) | < 100 nM
CCOC(=O)C=C1CC2CC(c3nn(C)c(N)c3C(=O)Nc3ccc(F)c(Cl)c3)CC2C1 (stereo not given) | < 100 nM
Cn1nc(C2CC3CC(N)CC3C2)c(C(=O)Nc2ccc(F)c(Cl)c2)c1N (stereo not given) | in the range around 300 nM
Cn1nc([C@@H]2CC3CC(O)(C[S+]([O-])CC(F)(F)F)C[C@@H]3C2)c(C(=O)Nc2ccc(F)c(Cl)c2)c1N (stereo not given in full) | < 100 nM
Cn1nc([C@@H]2CC3CC(O)(CS(C)(=O)=O)C[C@H]3C2)c(C(=O)Nc2ccc(F)c(Cl)c2)c1N (stereo not given in full) | < 100 nM
Cn1nc(C2CC3CC(N4CCNC(=O)C4)CC3C2)c(C(=O)Nc2ccc(F)c(C#N)c2)c1N (stereo not given) | < 100 nM
CC(N1CC2CC(c3nn(C)c(N)c3C(=O)Nc3ccc(F)c(Cl)c3)CC2C1)C(F)(F)F (stereo not given) | < 100 nM
Cn1nc([C@H]2CC3CC(O)(C[S+]([O-])CC(F)(F)F)C[C@H]3C2)c(C(=O)Nc2ccc(F)c(Cl)c2)c1N (stereo not given in full) | < 100 nM
CN1CC2CC(c3nn(C)c(N)c3C(=O)Nc3ccc(F)c(Cl)c3)CC2C1 (stereo not given) | in the range around 5250 nM
Cn1nc(C2CC3CN(C(=O)OC(C)(C)C)CC3C2)c(C(=O)Nc2ccc(F)c(Cl)c2)c1N (stereo not given) | < 100 nM
Cn1nc(C2CC3CC(N4CCOCC4)CC3C2)c(C(=O)Nc2ccc(F)c(Cl)c2)c1N (stereo not given) | < 100 nM
Cn1nc([C@@H]2CC3CNC(=O)C[C@H]3C2)c(C(=O)Nc2ccc(F)c(Cl)c2)c1N (stereo not given in full) | < 100 nM
Cn1nc(C2CC3CN(C(=O)N4CCCC4)CC3C2)c(C(=O)Nc2ccc(F)c(Cl)c2)c1N (stereo not given) | < 100 nM
Cn1nc([C@H]2CC3CC(O)(C[S+]([O-])CC(F)(F)F)C[C@@H]3C2)c(C(=O)Nc2ccc(F)c(Cl)c2)c1N (stereo not given in full) | < 100 nM
CNC1CC2CC(c3nn(C)c(N)c3C(=O)Nc3ccc(F)c(Cl)c3)CC2C1 (stereo not given) | in the range around 300 nM
Cn1nc([C@@H]2CC3CC(O)(CS(=O)(=O)C(C)(C)C)C[C@@H]3C2)c(C(=O)Nc2ccc(F)c(Cl)c2)c1N (stereo not given in full) | < 100 nM
Cn1cc([C@@H]2CC[C@H](c3nn(C)c(N)c3C(=O)Nc3ccc(F)c(Cl)c3)C2)cn1 | < 100 nM
Cn1nc([C@@H]2CC3C[S+]([O-])C[C@H]3C2)c(C(=O)Nc2ccc(F)c(Cl)c2)c1N (stereo not given in full) | in the range around 5250 nM

— ChEMBL document CHEMBL5729557, “5-membered heteroaryl carboxamide compounds for treatment of HBV” (2023)
